Reference: ChEMBL document CHEMBL1201862, “PubChem BioAssay data set” (2004)
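Interpolation was linear, between the two tested concentrations surrounding the appropriate level; five concentrations were tested over 48 hours in 96-well plates. Abbreviation: GI50, concentration required for 50% inhibition of growth.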 Activity calls are given as the source filed them. No stated cut-off is given here; in the data, active = GI50 up to about 1.1 µM and inactive = higher.

Tests used:
Experiment in all cases: growth of human tumour cells (NCI), 48 h
DMS-273 = tested on: DMS-273
M14 = tested on: M14
NCI-H460 = tested on: NCI-H460
IGROV-1 = tested on: IGROV-1
DLD-1 = tested on: DLD-1
NCI-H226 = tested on: NCI-H226
HOP-92 = tested on: HOP-92
LXFL 529 = tested on: LXFL 529
EKVX = tested on: EKVX
786-0 = tested on: 786-0
MDA-MB-231 = tested on: MDA-MB-231
T47D = tested on: T47D
MDA-N = tested on: MDA-N
PC-3 = tested on: PC-3
BT-549 = tested on: BT-549
MDA-MB-435 = tested on: MDA-MB-435
MCF7 = tested on: MCF7
NCI/ADR-RES = tested on: NCI/ADR-RES
DU-145 = tested on: DU-145
XF498 = tested on: XF498

Measured: GI50

Cc1cccc(C(C)C)c1NC(=O)/C(Cc1c([N+](=O)[O-])cccc1[N+](=O)[O-])=N/NC(=O)CC#N
inactive: DMS-273 > 100 µM | M14 > 100 µM | NCI-H460 > 100 µM | IGROV-1 > 100 µM | DLD-1 > 100 µM | NCI-H226 > 100 µM | HOP-92 41.6 µM | LXFL 529 > 100 µM | EKVX 7.05 µM | 786-0 > 100 µM

COc1ccc(-c2c3c(nc4nc(SCCc5ccccc5)nc(N)c24)CCCC3)cc1OC
inactive: M14 > 100 µM | MDA-MB-231 > 100 µM | T47D > 100 µM | MDA-N > 100 µM | PC-3 > 100 µM | BT-549 > 100 µM | NCI-H460 > 100 µM | IGROV-1 > 100 µM | MDA-MB-435 > 100 µM | MCF7 > 100 µM | NCI/ADR-RES > 100 µM | DU-145 > 100 µM | EKVX > 100 µM

CC1CC/C(=C\c2ccc(Cl)cc2)C(=O)/C1=C\c1ccc(Cl)cc1 (stereo unspecified)
inactive: M14 24 µM | MDA-MB-231 28.4 µM | T47D 58.9 µM | MDA-N 51.2 µM | PC-3 34.4 µM | BT-549 29.9 µM | IGROV-1 22.4 µM | MDA-MB-435 36.8 µM | MCF7 36.2 µM | HOP-92 > 100 µM | DU-145 49.2 µM | EKVX 26.4 µM | 786-0 34.1 µM

O=C1C[C@H](Sc2ccccc2)C2(OCCO2)[C@@H](Sc2ccccc2)C1
inactive: M14 1.78 µM | MDA-MB-231 1.64 µM | T47D 5.13 µM | MDA-N 2.2 µM | PC-3 1.93 µM | BT-549 1.97 µM | NCI-H460 5.19 µM | IGROV-1 1.5 µM | MDA-MB-435 2.25 µM | MCF7 1.17 µM | NCI/ADR-RES 1.88 µM | NCI-H226 2.31 µM | HOP-92 1.9 µM | DU-145 3.19 µM | EKVX 4.52 µM | 786-0 2.82 µM

CC1CN=C(N(C(=O)Nc2ccccc2)C2CCCCC2)S1 (stereo unspecified)
inactive: MDA-MB-231 15.4 µM | T47D 17.7 µM | MDA-N 15.6 µM | PC-3 15.5 µM | NCI-H460 16.6 µM | IGROV-1 17.8 µM | MCF7 16.6 µM | NCI/ADR-RES 14.5 µM | DU-145 25.5 µM | EKVX 15.7 µM | 786-0 17.3 µM

COc1ccc(/N=C(\C)c2ccncc2)cc1
inactive: M14 > 100 µM | MDA-MB-231 > 100 µM | T47D > 100 µM | MDA-N > 100 µM | PC-3 > 100 µM | BT-549 64 µM | NCI-H460 > 100 µM | IGROV-1 > 100 µM | MDA-MB-435 26.9 µM | MCF7 66.7 µM | NCI/ADR-RES > 100 µM | NCI-H226 93.3 µM | HOP-92 > 100 µM | DU-145 83 µM | EKVX > 100 µM | 786-0 > 100 µM

CCOC(=O)NC(OCc1ccccc1)(C(=O)OC)C(F)(F)F (stereo unspecified)
inactive: M14 > 100 µM | MDA-MB-231 > 100 µM | T47D > 100 µM | MDA-N > 100 µM | PC-3 > 100 µM | BT-549 > 100 µM | NCI-H460 > 100 µM | IGROV-1 > 100 µM | MDA-MB-435 > 100 µM | MCF7 > 100 µM | NCI/ADR-RES > 100 µM | HOP-92 > 100 µM | DU-145 > 100 µM | EKVX > 100 µM

CCOC(=O)c1cc(C2CCN(Cc3ccccc3)C2=S)c(C(=O)C=[N+]=[N-])[nH]1 (stereo unspecified)
inactive: M14 20.1 µM | MDA-MB-231 33.1 µM | MDA-N 21.1 µM | PC-3 27.4 µM | BT-549 26.9 µM | NCI-H460 23.9 µM | IGROV-1 24.7 µM | MDA-MB-435 40.1 µM | MCF7 14.6 µM | NCI/ADR-RES 24.5 µM | HOP-92 21.3 µM | DU-145 33.4 µM | EKVX 26.7 µM | 786-0 28.1 µM

O=C(Nc1c(C(=O)NC2CCCCC2)[nH]c(=O)[nH]c1=O)c1ccc(Cl)cc1
inactive: M14 > 100 µM | NCI-H460 > 100 µM | IGROV-1 > 100 µM | DLD-1 > 100 µM | NCI-H226 > 100 µM | XF498 > 100 µM | HOP-92 > 100 µM | LXFL 529 > 100 µM | EKVX > 100 µM

C[C@H](O)C(=O)SC[C@H](NC(=O)CC[C@@H](N)C(=O)O)C(=O)NCC(=O)O
inactive: DMS-273 > 100 µM | M14 > 100 µM | NCI-H460 > 100 µM | IGROV-1 > 100 µM | DLD-1 > 100 µM | NCI-H226 > 100 µM | HOP-92 > 100 µM | LXFL 529 > 100 µM | EKVX > 100 µM

COC(=O)C(=O)Cc1nc2ccccc2o1
inactive: M14 > 100 µM | NCI-H460 > 100 µM | DLD-1 > 100 µM | XF498 > 100 µM | LXFL 529 > 100 µM | EKVX > 100 µM

CCOC(=O)c1c(N=C(S)Nc2ccccc2)sc2c1CCN(C)C2
inactive: M14 > 100 µM | MDA-MB-231 > 100 µM | T47D > 100 µM | MDA-N > 100 µM | PC-3 > 100 µM | BT-549 > 100 µM | NCI-H460 > 100 µM | IGROV-1 > 100 µM | MCF7 > 100 µM | NCI/ADR-RES > 100 µM | NCI-H226 > 100 µM | DU-145 > 100 µM | EKVX > 100 µM | 786-0 > 100 µM

N#CCc1c(F)c(F)c(F)c(F)c1F
inactive: M14 > 100 µM | MDA-MB-231 > 100 µM | T47D > 100 µM | MDA-N > 100 µM | PC-3 > 100 µM | BT-549 > 100 µM | IGROV-1 > 100 µM | MDA-MB-435 > 100 µM | MCF7 > 100 µM | NCI/ADR-RES > 100 µM | NCI-H226 > 100 µM | DU-145 > 100 µM | EKVX > 100 µM | 786-0 > 100 µM

N=c1c2ccccc2nc2oc3ccc(Cl)cc3n12
inactive: M14 9.4 µM | MDA-MB-231 25.6 µM | MDA-N 65.6 µM | PC-3 33.1 µM | BT-549 36.6 µM | NCI-H460 25.8 µM | IGROV-1 16.4 µM | MDA-MB-435 71.3 µM | NCI/ADR-RES 48.3 µM | NCI-H226 17.8 µM | EKVX 15.6 µM | 786-0 3.94 µM

O=C1c2ccccc2C(=O)N1/N=C1/SC(=N\c2ccccc2)/C(=N/c2ccccc2)N1c1ccccc1
inactive: M14 77.1 µM | MDA-MB-231 > 10 µM | T47D > 100 µM | PC-3 > 52.6 µM | BT-549 > 48.4 µM | NCI-H460 > 61.8 µM | IGROV-1 > 78.7 µM | MDA-MB-435 > 100 µM | MCF7 > 68.1 µM | NCI/ADR-RES > 100 µM | NCI-H226 > 71.3 µM | HOP-92 > 27.9 µM | DU-145 > 100 µM | EKVX > 76.9 µM | 786-0 11.4 µM

Fc1ccc2c(c1)SC1=Nc3sc4cc(F)ccc4[n+]3CN12
inactive: M14 25.8 µM | MDA-MB-231 13.9 µM | T47D 13.7 µM | PC-3 21.4 µM | BT-549 14.8 µM | NCI-H460 25.5 µM | IGROV-1 3.91 µM | MDA-MB-435 39.6 µM | MCF7 21.6 µM | NCI/ADR-RES 18.2 µM | NCI-H226 21.3 µM | HOP-92 17.1 µM | DU-145 26.7 µM | EKVX 28 µM | 786-0 18.3 µM

CN(C)CCC(O)(c1ccccc1)C(O)(CCN(C)C)c1ccccc1 (stereo unspecified)
inactive: M14 17.4 µM | NCI-H460 > 100 µM | IGROV-1 > 100 µM | DLD-1 > 100 µM | XF498 38.7 µM | LXFL 529 > 100 µM | EKVX > 100 µM | 786-0 > 100 µM

O=C(N/N=C/c1ccccc1)c1c(F)c(F)c(F)c(F)c1F
inactive: M14 56.8 µM | MDA-MB-231 > 100 µM | T47D > 100 µM | MDA-N 28.8 µM | PC-3 > 100 µM | BT-549 > 100 µM | NCI-H460 > 100 µM | IGROV-1 > 100 µM | MDA-MB-435 37.8 µM | NCI/ADR-RES > 100 µM | NCI-H226 > 100 µM | HOP-92 79.6 µM | DU-145 > 100 µM | EKVX > 100 µM

CCO[C@]12C[C@H](OC)[C@@]3(O)CC(C1[C@H]3O)C13C4C2[C@H](OC)C1[C@](COC)(CN4CC)[C@H](O)C[C@@H]3OC (stereo partly specified)
inactive: DMS-273 > 100 µM | M14 > 100 µM | NCI-H460 > 100 µM | IGROV-1 > 100 µM | DLD-1 > 100 µM | NCI-H226 > 100 µM | LXFL 529 > 100 µM | EKVX > 100 µM

CC[C@]12C=CCN3CC[C@@]4(c5cc(Br)c(OC)c([N+](=O)[O-])c5N(C)[C@H]4[C@@](O)(C(=O)OC)[C@@H]1OC(C)=O)[C@@H]32
inactive: M14 55.7 µM | MDA-MB-231 > 100 µM | T47D 50.4 µM | MDA-N 37.2 µM | PC-3 40.4 µM | BT-549 > 100 µM | NCI-H460 40.8 µM | IGROV-1 24.1 µM | MDA-MB-435 35.1 µM | MCF7 37.4 µM | NCI/ADR-RES 48.1 µM | NCI-H226 21.8 µM | DU-145 98.2 µM | EKVX 29.6 µM | 786-0 94.6 µM

Cc1ccc(NC(=O)C(Cc2c[nH]c3ccccc23)NC(=O)Oc2ccccc2)cc1C (stereo unspecified)
inactive: M14 74.8 µM | MDA-MB-231 > 100 µM | T47D 39.5 µM | MDA-N 55.8 µM | PC-3 37.3 µM | BT-549 30.6 µM | NCI-H460 39.4 µM | IGROV-1 30.5 µM | MDA-MB-435 65.2 µM | MCF7 41.2 µM | NCI/ADR-RES 83.8 µM | NCI-H226 73.1 µM | HOP-92 27.7 µM | DU-145 > 100 µM | EKVX 59.7 µM
